Series [1] in a line: refractive index (Na D-line) (dimensionless); mn = molality of the nth substance listed, in mol/kg. The following applies: 86.8 kPa, Liquid, Standard Abbe refractometry, m2 = 0.
A short description of series [2]: refractive index (Na D-line) (dimensionless). The following applies: 86.8 kPa, Liquid, Standard Abbe refractometry.
For series [3] the following is noted: 86.8 kPa, Liquid; for speed of sound: Frequency=3 MHz, Sing-around technique in a fixed-path interferometer; for mass density: Vibrating tube method.

± gives the expanded uncertainty stated by the source.

A word on the refractive index: it is a measure of how strongly the sample bends light. Turning to `O` [water] + CCCCn1cc[n+](C)c1.O=C([O-])c1ccccc1O, the refractive index in series [1] (288.15 K) was found to be 1.3329 ± 0.004; in series [1] (298.15 K), 1.3323 ± 0.004; in series [1] (308.15 K) it was 1.3316 ± 0.004; in series [1] (318.15 K), 1.3305 ± 0.004.

As usually defined, the speed of sound is the propagation velocity of pressure waves in the medium. By mass density is commonly meant the mass of a sample divided by its volume. As for `CCCCn1cc[n+](C)c1.O=C([O-])c1ccccc1O` [1-butyl-3-methylimidazolium salicylate], the refractive index stood at 1.6503 ± 0.004 in series [2] (288.15 K), 1.647 ± 0.004 in series [2] (298.15 K), 1.6442 ± 0.004 in series [2] (308.15 K) and 1.6413 ± 0.004 in series [2] (318.15 K). Besides, the speed of sound is reported as 1721.6 ± 2.4 m/s in series [3] (288.15 K), 1679.2 ± 2.4 m/s in series [3] (298.15 K), 1640.9 ± 2.4 m/s in series [3] (308.15 K) and 1606.1 ± 2.4 m/s in series [3] (318.15 K). Further, the mass density in series [3] (288.15 K) is given as 1155.72 ± 1.6 kg/m3; in series [3] (298.15 K) it was 1148.81 ± 1.6 kg/m3; in series [3] (308.15 K) it was 1142.02 ± 1.6 kg/m3; in series [3] (318.15 K), 1135.41 ± 1.6 kg/m3.

(Values after the NIST ThermoML archive (doi:10.1016/j.tca.2016.05.013).)
